What was measured:
[1] = molar heat capacity at constant pressure; conditions: 101.33 kPa, Liquid, Small sample (50 mg) DSC
[2] = Liquid; for speed of sound: Frequency=2 MHz, Pulse-echo method; for mass density: Vibrating tube method

CCCCCCCCCCCC(=O)OCC [ethyl dodecanoate]
[1]
Conditions | molar heat capacity at constant pressure [J/K/mol]
297.91 K | 459.03
307.79 K | 464.37
317.66 K | 469.8
327.54 K | 475.42
337.42 K | 481.45
347.29 K | 487.46
357.17 K | 493.28
367.05 K | 499.88
376.92 K | 507.07
386.8 K | 515.39

[2]
Conditions | mass density [kg/m3] | speed of sound [m/s]
293.15 K, 100 kPa | – | 1339.9
293.15 K, 101.33 kPa | 862.2 | –
293.15 K, 10000 kPa | – | 1390.8
293.15 K, 20000 kPa | – | 1436.7
293.15 K, 30000 kPa | – | 1479.3
293.15 K, 40000 kPa | – | 1519
293.15 K, 50000 kPa | – | 1555.9
293.15 K, 60000 kPa | – | 1591.9
293.15 K, 70000 kPa | – | 1626.2
293.15 K, 80000 kPa | – | 1659.7
293.15 K, 90000 kPa | – | 1690.9
293.15 K, 100000 kPa | – | 1720.9
293.15 K, 120000 kPa | – | 1778.5
303.15 K, 101.33 kPa | 854.3 | –
313.15 K, 100 kPa | – | 1266.1
313.15 K, 101.33 kPa | 846.5 | –
313.15 K, 10000 kPa | – | 1317.6
313.15 K, 20000 kPa | – | 1365
313.15 K, 30000 kPa | – | 1409.3
313.15 K, 40000 kPa | – | 1452.1
313.15 K, 50000 kPa | – | 1491.4
313.15 K, 60000 kPa | – | 1529.2
313.15 K, 70000 kPa | – | 1564.8
313.15 K, 80000 kPa | – | 1600.2
313.15 K, 90000 kPa | – | 1632.3
313.15 K, 100000 kPa | – | 1663
313.15 K, 120000 kPa | – | 1721.9
313.15 K, 140000 kPa | – | 1777.9
313.15 K, 160000 kPa | – | 1830.9
323.15 K, 101.33 kPa | 838.8 | –
333.15 K, 100 kPa | – | 1194
333.15 K, 101.33 kPa | 831.1 | –
333.15 K, 10000 kPa | – | 1250.3
333.15 K, 20000 kPa | – | 1300.9
333.15 K, 30000 kPa | – | 1348
333.15 K, 40000 kPa | – | 1393.4
333.15 K, 50000 kPa | – | 1434.3
333.15 K, 60000 kPa | – | 1473.3
333.15 K, 70000 kPa | – | 1509.8
333.15 K, 80000 kPa | – | 1545.4
333.15 K, 90000 kPa | – | 1578.6
333.15 K, 100000 kPa | – | 1610.9
333.15 K, 120000 kPa | – | 1674.1
333.15 K, 140000 kPa | – | 1730.4
333.15 K, 160000 kPa | – | 1782.7
333.15 K, 180000 kPa | – | 1835.3
333.15 K, 200000 kPa | – | 1883.8
343.15 K, 101.33 kPa | 823.2 | –
353.15 K, 100 kPa | – | 1125.7
353.15 K, 101.33 kPa | 815.2 | –
353.15 K, 10000 kPa | – | 1186
353.15 K, 20000 kPa | – | 1240.6
353.15 K, 30000 kPa | – | 1290.3
353.15 K, 40000 kPa | – | 1337.1
353.15 K, 50000 kPa | – | 1379.7
353.15 K, 60000 kPa | – | 1419.8
353.15 K, 70000 kPa | – | 1458.8
353.15 K, 80000 kPa | – | 1496.2
353.15 K, 90000 kPa | – | 1530.6
353.15 K, 100000 kPa | – | 1564.4
353.15 K, 120000 kPa | – | 1627
353.15 K, 140000 kPa | – | 1685.1
353.15 K, 160000 kPa | – | 1740.7
353.15 K, 180000 kPa | – | 1793.6
353.15 K, 200000 kPa | – | 1843.5

viscosity [mPa·s], [2]
Conditions | 293.15 K | 313.15 K | 333.15 K | 353.15 K
101.33 kPa, Capillary tube (Ostwald / Ubbelohde) method | 3.35 | 2.19 | 1.55 | 1.16
10000 kPa, quartz crystal resonator | 3.77 | 2.46 | 1.74 | 1.29
20000 kPa, quartz crystal resonator | 4.28 | 2.75 | 1.91 | 1.44
30000 kPa, quartz crystal resonator | 4.78 | 3.11 | 2.13 | 1.58
40000 kPa, quartz crystal resonator | 5.39 | 3.37 | 2.33 | 1.73
50000 kPa, quartz crystal resonator | 5.94 | 3.74 | 2.55 | 1.9
60000 kPa, quartz crystal resonator | 6.65 | 4.11 | 2.82 | 2.05
70000 kPa, quartz crystal resonator | 7.25 | 4.45 | 3.08 | 2.22
80000 kPa, quartz crystal resonator | 8.13 | 4.92 | 3.29 | 2.4
90000 kPa, quartz crystal resonator | 8.91 | 5.46 | 3.6 | 2.58
100000 kPa, quartz crystal resonator | 9.76 | 5.96 | 3.94 | 2.78
120000 kPa, quartz crystal resonator | 11.9 | 6.77 | 4.55 | 3.22
140000 kPa, quartz crystal resonator | – | 8.06 | 5.27 | 3.68
160000 kPa, quartz crystal resonator | – | 9.57 | 6.1 | 4.19
180000 kPa, quartz crystal resonator | – | – | 6.98 | 4.76
200000 kPa, quartz crystal resonator | – | – | 7.85 | 5.28

CCCCCCCCCCCC(=O)OC [methyl dodecanoate]
[1]
Conditions | molar heat capacity at constant pressure [J/K/mol]
297.91 K | 433.79
307.79 K | 438.57
317.66 K | 443.29
327.54 K | 448.34
337.42 K | 453.83
347.29 K | 459.28
357.17 K | 464.66
367.05 K | 470.72
376.92 K | 477.82
386.8 K | 485.49

[2]
Conditions | mass density [kg/m3] | speed of sound [m/s]
293.15 K, 100 kPa | – | 1351.3
293.15 K, 101.33 kPa | 869.2 | –
293.15 K, 10000 kPa | – | 1400.9
293.15 K, 20000 kPa | – | 1445.1
293.15 K, 30000 kPa | – | 1486.4
293.15 K, 40000 kPa | – | 1526.9
293.15 K, 50000 kPa | – | 1563.8
293.15 K, 60000 kPa | – | 1600
293.15 K, 70000 kPa | – | 1628.6
293.15 K, 80000 kPa | – | 1660.5
293.15 K, 90000 kPa | – | 1690.9
303.15 K, 101.33 kPa | 861.4 | –
313.15 K, 100 kPa | – | 1276.4
313.15 K, 101.33 kPa | 853.8 | –
313.15 K, 10000 kPa | – | 1328
313.15 K, 20000 kPa | – | 1375.3
313.15 K, 30000 kPa | – | 1420
313.15 K, 40000 kPa | – | 1461.6
313.15 K, 50000 kPa | – | 1500.9
313.15 K, 60000 kPa | – | 1537
313.15 K, 70000 kPa | – | 1573.3
313.15 K, 80000 kPa | – | 1607.4
313.15 K, 90000 kPa | – | 1637.8
313.15 K, 100000 kPa | – | 1671.1
313.15 K, 120000 kPa | – | 1728.6
313.15 K, 140000 kPa | – | 1784.4
323.15 K, 101.33 kPa | 845.8 | –
333.15 K, 100 kPa | – | 1205.5
333.15 K, 101.33 kPa | 837.9 | –
333.15 K, 10000 kPa | – | 1259.6
333.15 K, 20000 kPa | – | 1311
333.15 K, 30000 kPa | – | 1357.5
333.15 K, 40000 kPa | – | 1401
333.15 K, 50000 kPa | – | 1441.3
333.15 K, 60000 kPa | – | 1480.9
333.15 K, 70000 kPa | – | 1515.7
333.15 K, 80000 kPa | – | 1550.8
333.15 K, 90000 kPa | – | 1585.9
333.15 K, 100000 kPa | – | 1621.9
333.15 K, 120000 kPa | – | 1682
333.15 K, 140000 kPa | – | 1739.2
333.15 K, 160000 kPa | – | 1791.8
333.15 K, 180000 kPa | – | 1843.5
333.15 K, 200000 kPa | – | 1893.2
343.15 K, 101.33 kPa | 830 | –
353.15 K, 100 kPa | – | 1133.5
353.15 K, 101.33 kPa | 822.2 | –
353.15 K, 10000 kPa | – | 1192.2
353.15 K, 20000 kPa | – | 1247.2
353.15 K, 30000 kPa | – | 1295.9
353.15 K, 40000 kPa | – | 1342.5
353.15 K, 50000 kPa | – | 1386.1
353.15 K, 60000 kPa | – | 1426.2
353.15 K, 70000 kPa | – | 1463.8
353.15 K, 80000 kPa | – | 1500.1
353.15 K, 90000 kPa | – | 1534.8
353.15 K, 100000 kPa | – | 1568.3
353.15 K, 120000 kPa | – | 1632.8
353.15 K, 140000 kPa | – | 1690.8
353.15 K, 160000 kPa | – | 1744.4
353.15 K, 180000 kPa | – | 1802.7
353.15 K, 200000 kPa | – | 1851.2

viscosity [mPa·s], [2]
Conditions | 293.15 K | 313.15 K | 333.15 K | 353.15 K
101.33 kPa, Capillary tube (Ostwald / Ubbelohde) method | 3.14 | 2.05 | 1.45 | 1.09
10000 kPa, quartz crystal resonator | 3.53 | 2.3 | 1.61 | 1.21
20000 kPa, quartz crystal resonator | 3.96 | 2.59 | 1.78 | 1.33
30000 kPa, quartz crystal resonator | 4.4 | 2.85 | 1.98 | 1.48
40000 kPa, quartz crystal resonator | 5 | 3.16 | 2.18 | 1.62
50000 kPa, quartz crystal resonator | 5.64 | 3.5 | 2.39 | 1.76
60000 kPa, quartz crystal resonator | 6.21 | 3.85 | 2.62 | 1.92
70000 kPa, quartz crystal resonator | 6.79 | 4.22 | 2.82 | 2.08
80000 kPa, quartz crystal resonator | 7.58 | 4.64 | 3.07 | 2.25
90000 kPa, quartz crystal resonator | – | 5.06 | 3.36 | 2.46
100000 kPa, quartz crystal resonator | – | 5.55 | 3.63 | 2.65
120000 kPa, quartz crystal resonator | – | 6.67 | 4.26 | 3.09
140000 kPa, quartz crystal resonator | – | 7.67 | 4.95 | 3.54
160000 kPa, quartz crystal resonator | – | – | 5.75 | 4.06
180000 kPa, quartz crystal resonator | – | – | 6.56 | 4.64
200000 kPa, quartz crystal resonator | – | – | 7.56 | 5.34

— the NIST ThermoML archive (doi:10.1016/j.jct.2017.12.020)
